Like-named read-outs stand apart in the source and are kept apart here.
How the values were obtained:
[1] = Caco-2 permeability assay; format: in vitro ADME, human; conditions: human; for recovery at 120 min, 10 µM: Caco-2, % SSA recovered from the assay after 2 hours; for Papp B→A at 120 min, 10 µM: Caco-2, Caco-2
Procedure: Section 4: DMPK Methods and Further Discussion […]
Caco-2 Permeability studies: The permeability assay for SSA 1-6 and 10 was performed at Cyprotex Discovery Limited (Macclesfield, UK) and analysed at Cancer Research Horizons. SSA 1-6 and 10 were incubated at a final concentration of 10 uM with human intestinal Caco-2 cells at 37°C, 5% CO2 with a relative humidity of 95%. After 120 minutes the apical compartment inserts and the companion plates were separated, and the apical and basolateral samples were transferred. Incubations were conducted in duplicate and the fluorescent membrane integrity marker; Lucifer Yellow was co-incubated with the SSA compounds at the start of the assay. Compounds of known permeability were used as controls and were within acceptance criteria. Further processing is described in:
Sample preparation and liquid chromatography-mass spectrometry analysis.
Sample preparation and liquid chromatography-mass spectrometry analysis: All samples were centrifuged at 3500 rpm at 4°C for 10 min to precipitate protein and enable sampling of supernatant prior to appropriate dilution for liquid chromatography-mass spectrometry (LC-MS/MS analysis). […]
(1.5 µm, 50 x 2.1 mm) at a temperature of 40°C and a binary mobile phase gradient at a flow rate of […]
0.4 mL/min. […]
For the purpose of apparent permeability determination, samples were analysed using a Waters I-Class ultra-high-performance liquid chromatography (UHPLC) system coupled to a Waters Vion mass spectrometer (Waters, Elstree, UK). Separation of analytes was achieved used an Accucore Vanquish C18+ column (1.5 µm, 50 x 2.1 mm) at a temperature of 40°C and a binary mobile phase gradient at a flow rate of 0.4 mL/min. Initial LC conditions for SSA 1-4 comprised 66% solvent A (0.1% formic acid + 5 mM ammonium acetate in water), 33% solvent B (0.1% formic acid + 5 mM ammonium acetate in methanol); this was ramped to 63% B at 1.8 min and 95% B at 1.9 min, held for 0.5 min and then immediately returned to initial conditions and held for the remaining 0.5 min of the method. Initial LC conditions for SSA 5-10 comprised 54% solvent A (0.1% formic acid + 5 mM ammonium acetate in water), 46% solvent B (0.1% formic acid + 5 mM ammonium acetate in methanol); this was ramped to 67% B at 1.8 min and 95% B at 1.9 min, held for 0.5 min and then immediately returned to initial conditions and held for the remaining 0.5 min of the method.
Sample analysis was by electrospray ionisation in negative ion mode. The capillary voltage was 2.5 kV, desolvation gas was 600°C.
For the purpose of PK determination of SSA 5, samples were analysed using a Waters I-Class ultra-high-performance liquid chromatography (UHPLC) system coupled to a Waters Xevo TQ-XS mass spectrometer. Separation of analytes was achieved using an Accucore Vanquish C18+ column (1.5 µm, 50 x 2.1 mm) at a temperature of 40°C and a binary mobile phase gradient at a flow rate of 0.4 mL/min. Initial LC conditions comprised 54% solvent A (0.1% formic acid + 5 mM ammonium acetate in water), 46% solvent B (0.1% formic acid + 5 mM ammonium acetate in methanol); this was ramped to 67% B at 1.8 min and 95% B at 1.9 min, held for 0.5 min and then immediately returned to initial conditions and held for the remaining 0.5 min of the method. Sample analysis was by electrospray ionisation combined with multiple reaction monitoring in negative ion mode. The […]
Mean blood concentration-time profile: Within these studies SSAs 3 and 5 were dosed at 1 mg/kg, to female CD-1 mice (n=9 per SSA) via an intravenous tail vein bolus dose formulation as solutions in 2 % DMSO/98 % water. Blood taken from the mouse tail vein was extracted by protein precipitation.
SSA concentrations were calculated through UPLC-MS/MS techniques, with tolbutamide as the internal standard. The assay met the acceptance criteria with >7 calibration standards within ± 20% of nominal concentration. The lower limit of quantitation was 2 ng/mL for both compounds. PK […]

PG lipid vesicles = assay: Synthetic phospholipid vesicle membrane binding assay (fluorescence polarisation), PG vesicles; conditions: lipid vesicles added to SSA (0.15 mM); n = 3; error = standard error; SSA alone set to 100 mP
Procedure: (§1) For intrinsically fluorescent SSAs 5, 6 and 8–12, FP titration experiments enabled the observation of SSA: phospholipid vesicle interactions. Here, an increase in FP value indicates an increase in the apparent size of the SSA as it interacts with the phospholipid vesicle. […]
(§2) Fluorescence polarisation: Lipid films were resuspended in Buffer (150 mM KCl, 10 mM HEPES, pH 7.4, 2 mM EGTA) and subjected to 9 freeze-thaw cycles in liquid nitrogen and extruded 20 times through a 200 nm polycarbonate membrane. Black bottom 96-well plates were prepared by serially diluting desired vesicle solution across the plate, the appropriate SSA solution (100 µL, 0.15 mM) was added to each well to give a total well volume of 200 µL. Fluorescent SSA solutions were set to a FP value of 100 mP. Data were acquired in endpoint mode. […]

PE-PG mix lipid vesicles = assay: Synthetic phospholipid vesicle membrane binding assay (fluorescence polarisation), PE-PG mix vesicles; conditions: lipid vesicles added to SSA (0.15 mM); n = 3; error = standard error; SSA alone set to 100 mP
Procedure: as §1, §2

[2] = 10 uM, 120 minutes, n = 2 technical repeats, read-out: Papp (B-A)
[3] = in words, read-out: Papp (B-A) class

recovery at 120 min, 10 µM ([1]; read-out: Recovery (A-B)) | recovery at 120 min, 10 µM ([1]; read-out: Recovery (B-A)) | Papp B→A at 120 min, 10 µM [1, 2] | increase in FP, PG (PG lipid vesicles) | increase in FP, PE-PG mix (PE-PG mix lipid vesicles) | Papp B→A at 120 min, 10 µM [1, 3] | Structure (SMILES)
93% | 101% | 5.4 ×10⁻⁶ cm/s | – | – | – | O=C(NCS(=O)(=O)O)Nc1ccc(C(F)(F)F)cc1 [SSA 1]
97% | 102% | 1.7 ×10⁻⁶ cm/s | – | – | – | O=C(NCCCS(=O)(=O)O)Nc1ccc(C(F)(F)F)cc1 [SSA 2]
93% | 96% | 2.3 ×10⁻⁶ cm/s | – | – | – | O=C(O)CNC(=O)Nc1ccc(C(F)(F)F)cc1 [SSA 4]
79% | 107% | 21 ×10⁻⁶ cm/s | 43 ± 9 mP | 36 ± 3 mP | > 10 ×10⁻⁶ cm/s | O=C(NCS(=O)(=O)O)Nc1ccccc1-c1nc2ccccc2s1 [SSA 5]
59% | 86% | 11 ×10⁻⁶ cm/s | 40 ± 4 mP | 9 ± 1 mP | > 10 ×10⁻⁶ cm/s | Cc1ccc2nc(-c3ccc(NC(=O)NCS(=O)(=O)O)cc3)sc2c1 [SSA 6]
– | – | – | 29 ± 1 mP | 32 ± 1 mP | – | O=C(NCS(=O)(=O)O)Nc1ccc(-c2nc3ccccc3s2)cc1 [SSA 8]
– | – | – | 47 ± 1 mP | 35 ± 2 mP | – | Cc1ccc2nc(-c3ccc(NC(=O)NCCC(=O)O)cc3)sc2c1 [SSA 9]
54% | 95% | 6.7 ×10⁻⁶ cm/s | 29 ± 2 mP | 21 ± 2 mP | – | Cc1ccc2nc(-c3ccc(NC(=O)NCCCS(=O)(=O)O)cc3)sc2c1 [SSA 10]
– | – | – | 209 ± 4 mP | 45 ± 2 mP | – | Cc1ccc2nc(-c3ccc(NC(=O)NCC(=O)O)cc3)sc2c1 [SSA 11]
– | – | – | 126 ± 5 mP | 107 ± 3 mP | – | Cc1ccc2nc(-c3ccc(NC(=S)NCS(=O)(=O)O)cc3)sc2c1 [SSA 12]

— PMC9400670, “Establishing the selective phospholipid membrane coordination, permeation and lysis properties for a series of ‘druggable’ supramolecular self-associating antimicrobial amphiphiles” (Chemical Science, 2022)
